For 5 compounds, IC50 results are on record in patent US20250018014A1, “METHOD FOR TREATING AND/OR PREVENTING REGNASE-1-RELATED DISEASE” (OSAKA UNIVERSITY, priority 2018, published 2025).

pIC50: −log10 of the molar value. Residues, ends and D or L forms follow the SMILES beside them.

One assay concerns the target T1, ΔCTD_Reg1 (amino acids 1 to 546 of human Regnase-1) phosphorylation by TBK1 (Homo sapiens, UniProt Q5D1E8).
T1 construct: made in house; host or cells: Expi293 cells
T1 sequence (Q5D1E8 1-546): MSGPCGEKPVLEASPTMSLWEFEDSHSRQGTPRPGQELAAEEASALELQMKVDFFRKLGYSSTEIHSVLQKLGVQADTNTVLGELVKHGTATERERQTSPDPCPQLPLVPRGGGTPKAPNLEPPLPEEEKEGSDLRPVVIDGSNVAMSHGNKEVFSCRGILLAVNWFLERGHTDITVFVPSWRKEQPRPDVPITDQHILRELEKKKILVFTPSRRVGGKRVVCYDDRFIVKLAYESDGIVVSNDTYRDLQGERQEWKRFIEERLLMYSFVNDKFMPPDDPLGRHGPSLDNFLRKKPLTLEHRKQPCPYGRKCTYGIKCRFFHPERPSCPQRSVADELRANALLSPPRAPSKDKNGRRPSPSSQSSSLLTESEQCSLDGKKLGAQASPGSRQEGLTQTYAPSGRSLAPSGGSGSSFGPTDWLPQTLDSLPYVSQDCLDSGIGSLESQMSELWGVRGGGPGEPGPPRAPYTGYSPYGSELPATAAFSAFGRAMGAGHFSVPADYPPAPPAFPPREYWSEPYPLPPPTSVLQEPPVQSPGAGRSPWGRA
As to the kind of experiment: Regnase-1 phosphorylation inhibition by compounds (AlphaScreen), TBK1, CTD-deficient Regnase-1. In kind it is biochemical. The note with it: Table 11; 2 nM Regnase-1; AlphaScreen; read-out: 50% inhibition concentration, Regnase-1 phosphorylation, ΔCTD_Reg1, TBK1. From the text: The full-length sequence of human Regnase-1 (UniProt ID: Q5D1E8) was used to prepare a construct having a FLAG tag on the N-terminal side and a recognition sequence for biotin ligase BirA on the C-terminal side (FL_Reg1) as a target protein. The above-mentioned Regnase-1 was expressed in mammalian Expi293 cells, purified with FLAG M2 agarose, and isolated by gel filtration chromatography. When biotinylation was required, methods from nonpatent documents (BMC biotechnology, 2008,8,41; and Protein Science, 1999,8,921-929) were used.
(§1) Among the full-length human Regnase-1 sequence, the 1st to 546th amino acid sequence was prepared and made into a construct having a FLAG tag on the N-terminal side and a biotin ligase BirA recognition sequence on the C-terminal side (herein, a Regnase-1 lacking the C-terminal domain of Regnase-1 (amino acids 547 to 599 in the case of SEQ ID NO: 2) is referred to as “ΔCTD_Reg1”. “ΔCTD_Reg1” is different from “Regnase-1ΔCTD”, which is a C-terminal domain deletion variant resulting from a frameshift mutation caused by a 1 bp deletion at codon 517, as prepared in Example 13). In addition, the sequence from amino acids 301 to 599 of the full-length human Regnase-1 sequence was designated as C-terminal Regnase-1, and a construct having a FLAG tag on the N-terminal side and a recognition sequence for biotin ligase BirA on the C-terminal side was prepared (Reg1_301-599). The above-mentioned Regnase-1 was expressed in mammalian Expi293 cells, purified with FLAG M2 agarose, and isolated by gel filtration chromatography. When biotinylation was required, methods of nonpatent documents (BMC biotechnology, 2008,8,41; and Protein Science, 1999,8,921-929) were used.
(§2) Using Kinase assay buffer III (manufactured by SignalChem) supplemented with 2 mM DTT, 100 μM sodium vanadate, and 2 mM manganese chloride, kinase (IKKβ (manufactured by SignalChem) or TBK1 (manufactured by SignalChem)) and Regnase-1 were reacted in the presence of 10 μM ATP at room temperature for 2 hours to perform a phosphorylation reaction.
(§3) Phosphorylated Regnase-1 was detected by the AlphaScreen system. After each of the above-mentioned phosphorylated Regnase-1 antibodies was added and reacted at room temperature for one hour, anti-FLAG AlphaLISA Acceptor Beads (manufactured by PerkinElmer) and Protein A AlphaScreen Donor Beads (manufactured by PerkinElmer) were added, and EnVision (manufactured by PerkinElmer) was used to measure the excited luminescence. As a result, phosphorylated Regnase-1 produced by the phosphorylation reaction by kinase was specifically detected, and signals were confirmed to be enhanced in a manner dependent on Regnase-1 and kinase concentrations (FIG. 24).
(§4) After mixing 2 nM of the above-mentioned Regnase-1 and the compound, phosphorylated Regnase-1 produced by the phosphorylation reaction was detected by the AlphaScreen system. As the results, the inhibition rate was calculated from the signals obtained when adding the compound at each concentration, by defining the signal obtained with Regnase-1 alone to be 100% inhibition rate, and the signal obtained when the same amount of solvent (DMSO) is added in place of the compound as 0% inhibition rate. The 50% inhibition concentration (μM) was calculated from the obtained dose response curve (Table 11).
On the technique in general: Bead proximity is the source of the signal in Alpha formats.
Take `CC[C@H](C)[C@@H]1NC(=O)[C@H](Cc2ccc(O)cc2)NC(=O)[C@H](C)N(C)C(=O)C[C@@H](C(=O)N2CCCC2)NC(=O)[C@H](CC(C)C)NC(=O)[C@H](CC(=O)O)NC(=O)CNC(=O)[C@H](Cc2ccccc2)NC(=O)[C@H](Cc2ccccc2)NC(=O)[C@H](CC(=O)O)NC(=O)[C@H](Cc2c[nH]c3ccccc23)NC1=O` [PP4] (HELM PEPTIDE1{[meA].Y.I.W.D.F.F.G.D.L.D.[C1CCN([*:1])C1]}$PEPTIDE1,PEPTIDE1,1:R1-11:R3$$$V2.0): the pIC50 was 4.35.

As to `CC[C@H](C)[C@@H]1NC(=O)[C@H](CC(N)=O)NC(=O)[C@H](Cc2ccc(O)cc2)NC(=O)[C@H](Cc2c[nH]c3ccccc23)NC(=O)[C@H](CO)NC(=O)[C@H](CC(N)=O)NC(=O)[C@H](C)NC(=O)[C@H](Cc2ccc(O)cc2)NC(=O)CNC(=O)[C@H](C)N(C)C(=O)C[C@@H](C(=O)N2CCCC2)NC(=O)[C@H](Cc2c[nH]c3ccccc23)NC1=O` [PP2] (HELM PEPTIDE1{[meA].G.Y.A.N.S.W.Y.N.I.W.D.[C1CCN([*:1])C1]}$PEPTIDE1,PEPTIDE1,1:R1-12:R3$$$V2.0), the pIC50 was 4.75.

For `CC[C@H](C)[C@@H]1NC(=O)[C@H](CC(N)=O)NC(=O)[C@H](Cc2ccc(O)cc2)NC(=O)[C@H](Cc2c[nH]c3ccccc23)NC(=O)[C@H](C)NC(=O)[C@H](CC(N)=O)NC(=O)[C@H](CO)NC(=O)[C@H](Cc2c[nH]cn2)NC(=O)[C@H](C)N(C)C(=O)C[C@@H](C(=O)N2CCCC2)NC(=O)[C@H](Cc2c[nH]c3ccccc23)NC1=O` [PP5] (HELM PEPTIDE1{[meA].H.S.N.A.W.Y.N.I.W.D.[C1CCN([*:1])C1]}$PEPTIDE1,PEPTIDE1,1:R1-11:R3$$$V2.0), the pIC50 is 4.72.

Consider `CC[C@H](C)[C@@H]1NC(=O)[C@H](CCCCN)NC(=O)[C@H](Cc2ccccc2)NC(=O)[C@H](Cc2c[nH]c3ccccc23)NC(=O)[C@H](CO)NC(=O)[C@H](CO)NC(=O)[C@H](CC(N)=O)NC(=O)[C@@H]2CCCN2C(=O)[C@@H](C)N(C)C(=O)C[C@@H](C(=O)N2CCCC2)NC(=O)[C@H](Cc2c[nH]c3ccccc23)NC1=O` [PP6] (HELM PEPTIDE1{[C[C@H](C(=O)[*:2])N(C)[*:1]].P.N.S.S.W.F.K.I.W.D.[C1CCN([*:1])C1]}$PEPTIDE1,PEPTIDE1,1:R1-11:R3$$$V2.0), for which the pIC50 was 4.84.

The assay is the same for the next values; noted with them: Table 13; phosphorylation by TBK1; read-out: Phosphorylation inhibition ΔCTD_Reg1, 50% inhibition concentration (TBK1).
On to `CC[C@H](C)[C@@H]1NC(=O)[C@H](CCCCN)NC(=O)[C@H](Cc2ccc(O)cc2)NC(=O)[C@H](Cc2ccccc2)NC(=O)[C@H](C(C)C)NC(=O)[C@H](C)N(C)C(=O)C[C@@H](C(=O)N2CCCC2)NC(=O)[C@H](Cc2c[nH]c3ccccc23)NC(=O)[C@H](CC(N)=O)NC(=O)[C@H](Cc2ccc(O)cc2)NC(=O)[C@H](Cc2c[nH]c3ccccc23)NC1=O` [PP19] (HELM PEPTIDE1{[meA].V.F.Y.K.I.W.Y.N.W.D.[C1CCN([*:1])C1]}$PEPTIDE1,PEPTIDE1,1:R1-11:R3$$$V2.0), for which the pIC50 was 5.34.

The target of the next assay is T2, Reg1_301-599 (amino acids 301-599 of human Regnase-1) phosphorylation by TBK1 (Homo sapiens, UniProt Q5D1E8).
T2 construct: made in house; host or cells: Expi293 cells
T2 sequence (Q5D1E8 301-599): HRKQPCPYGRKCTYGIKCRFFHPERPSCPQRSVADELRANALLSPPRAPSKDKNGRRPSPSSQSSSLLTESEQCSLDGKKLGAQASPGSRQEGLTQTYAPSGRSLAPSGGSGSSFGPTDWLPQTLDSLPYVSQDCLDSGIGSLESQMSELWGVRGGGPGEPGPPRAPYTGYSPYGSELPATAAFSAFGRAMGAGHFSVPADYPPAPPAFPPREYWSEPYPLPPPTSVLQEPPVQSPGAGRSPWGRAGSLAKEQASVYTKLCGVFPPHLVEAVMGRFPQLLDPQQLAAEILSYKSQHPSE
The assay can be described thus: Regnase-1 phosphorylation inhibition by compounds (AlphaScreen), TBK1, C-terminal Regnase-1. The assay is classed as biochemical. The following applies: Table 13, read-out: Phosphorylation inhibition Reg1_301-599, 50% inhibition concentration (TBK1). As to the method: as §1, §2, §3, §4
Consider `CC[C@H](C)[C@@H]1NC(=O)[C@H](CCCCN)NC(=O)[C@H](Cc2ccc(O)cc2)NC(=O)[C@H](Cc2ccccc2)NC(=O)[C@H](C(C)C)NC(=O)[C@H](C)N(C)C(=O)C[C@@H](C(=O)N2CCCC2)NC(=O)[C@H](Cc2c[nH]c3ccccc23)NC(=O)[C@H](CC(N)=O)NC(=O)[C@H](Cc2ccc(O)cc2)NC(=O)[C@H](Cc2c[nH]c3ccccc23)NC1=O` [PP19] (HELM PEPTIDE1{[meA].V.F.Y.K.I.W.Y.N.W.D.[C1CCN([*:1])C1]}$PEPTIDE1,PEPTIDE1,1:R1-11:R3$$$V2.0), for which the pIC50 is 5.24.
